What all share (type): in vivo
For test [1], the system named is generalized trembling caused by an interperitoneal injection (200 mg/kg) of dl-5-hydroxytryptophane. Kind of test: Test A: potentiation in mice of generalized trembling caused by dl-5-hydroxytryptophane. To be noted: Mus musculus, po, dl-5-hydroxytryptophane 200 mg/kg intraperitoneal, read-out: Test A ED 50. As to the method: Potentiation in mice of generalized trembling caused by an interperitoneal injection (200 mg/kg) of dl-5-hydroxytryptophane, following the protocol described by C. GOURET and G. RAYNAUD in J. Pharmacol. (Paris), (1974) 5, 231.

Test [2] relates to pontogeniculo-occipital points (P.G.O.) caused by an intravenous injection (0.5 mg/kg) of reserpine. Put plainly: Test C: reduction in the density of pontogeniculo-occipital points (P.G.O.) caused by reserpine in cats. To be noted: Felis catus, ip, reserpine 0.5 mg/kg intravenous, read-out: Test C ED 50. As to the method: Reduction in the density of pontogeniculo-occipital points (P.G.O.) caused by an intravenous injection (0.5 mg/kg) of reserpine given to cats, following the protocol described by A. COSTON and C. GOURET in J. Pharmacol. (Paris) (1976), 7, 409.

The subject of test [3] is ptosis observed one hour after an intravenous injection (2 mg/kg) of reserpine. Put plainly: Test B: antagonism of the ptosis caused by reserpine in mice. The note with it: Mus musculus, po, 1 h, p.o., reserpine 2 mg/kg intravenous, read-out: Test B ED 50. As to the method: Antagonism with respect to the ptosis observed one hour after an intravenous injection (2 mg/kg) of reserpine given to mice, following the protocol described by C.

We go through 55 compounds from patent US4338451A, “5-Hydroxymethyl oxazolidinones” (Delalande S.A., priority 1977, dated 1982).

As to `O=C1OC(CO)CN1c1ccc(OCCN2CCOCC2)cc1` (centres unmarked) [750 601], the ED50 in test [1] came to 70 mg/kg; in test [2], 31 mg/kg; in test [3], 8 mg/kg.
For `COCOc1ccc(N2CC(CO)OC2=O)cc1` (centres unmarked) [760 904] the same measures were 50 mg/kg, 8.5 mg/kg and 50 mg/kg.
For the compound `CC(COc1ccc(N2CC(CO)OC2=O)cc1)=NO` (centres unmarked) [770 126, oxime of 3-(p-acetylmethyloxyphenyl) 5-hydroxymethyl 2-oxazolidinone], the values for the ED50 in test [1], in test [2] and in test [3] were 8 mg/kg, 16.5 mg/kg and 11 mg/kg, respectively.
On to `O=C1OC(CO)CN1c1ccc(C(F)(F)F)cc1` (centres unmarked) [770 152, 5-hydroxymethyl 3-p-trifluoromethylphenyl 2-oxazolidinone], for which the ED50 in test [1] worked out at 20 mg/kg; in test [2], 15 mg/kg; in test [3], 25 mg/kg.
Turning to `CC(C)C(=O)COc1ccc(N2CC(CO)OC2=O)cc1` (centres unmarked) [770 154], the ED50 in test [1] stood at 50 mg/kg; in test [2], 20 mg/kg; in test [3], 50 mg/kg.
Regarding `CN(C)c1cccc(N2CC(CO)OC2=O)c1` (centres unmarked) [770 155], the values for the ED50 in test [1], in test [2] and in test [3] were 50 mg/kg, 35 mg/kg and 22.5 mg/kg, respectively.
As to `CCCCCSc1ccc(N2CC(CO)OC2=O)cc1` (centres unmarked) [770 180], the values for the ED50 in test [1], in test [2] and in test [3] were 35 mg/kg, 45 mg/kg and 45 mg/kg, respectively.
With `C=CCCCOc1ccc(N2CC(CO)OC2=O)cc1` (centres unmarked) [770 196], the ED50 in test [1] is 20 mg/kg; in test [2] it was 16 mg/kg; in test [3], 15 mg/kg.
Take `O=C1OC(CO)CN1c1ccc(OCc2cccnc2)cc1` (centres unmarked) [770 221]: the ED50 in test [1] turned out to be 11.8 mg/kg; in test [2] it was 15 mg/kg; in test [3], 3.12 mg/kg.
For the compound `CC(=O)COc1cccc(N2CC(CO)OC2=O)c1` (centres unmarked) [770 230], the values for the ED50 in test [2] and in test [3] were 16 mg/kg and 6.25 mg/kg, respectively.
Consider `N#CCOc1cccc(N2CC(CO)OC2=O)c1` (centres unmarked) [770 231, 5-hydroxymethyl 3-m-cyanomethyloxyphenyl 2-oxazolidinone], for which the ED50 in test [1] turned out to be 40 mg/kg; in test [2], 14 mg/kg; in test [3] it was 50 mg/kg.
On to `O=C1OC(CO)CN1c1ccc(OCc2ccc(Cl)c(Cl)c2)cc1` (centres unmarked) [770 268], for which the ED50 in test [1] turned out to be 7 mg/kg; in test [3], 8.5 mg/kg.
Regarding `O=C1OC(CO)CN1c1ccc(OCc2ccccn2)cc1` (centres unmarked) [770 298], the ED50 was 55 mg/kg in test [1] and 12.5 mg/kg in test [3].
For the compound `O=C1OC(CO)CN1c1ccc(OCc2ccncc2)cc1` (centres unmarked) [770 299], the ED50 turned out to be 20 mg/kg in test [1] and 12.5 mg/kg in test [3].
For the compound `N#Cc1ccccc1COc1ccc(N2CC(CO)OC2=O)cc1` (centres unmarked) [770 318], the ED50 in test [1] turned out to be 25 mg/kg; in test [3], 16 mg/kg.
In the case of `CCCCCNc1ccc(N2CC(CO)OC2=O)cc1` (centres unmarked) [770 328, 3-p-n pentylaminophenyl 5-hydroxymethyl 2-oxazolidinone], the ED50 was 25 mg/kg in test [1] and 35 mg/kg in test [3].
With `O=C1OC(CO)CN1c1ccc(OCc2ccc(Cl)cc2Cl)cc1` (centres unmarked) [770 354], the ED50 in test [1] worked out at 25 mg/kg; in test [2] it was 30 mg/kg; in test [3], 30 mg/kg.
`CCC(=O)c1ccc(N2CC(CO)OC2=O)cc1` (centres unmarked) [770 365]: the ED50 was 29 mg/kg in test [1] and 25 mg/kg in test [3].
With `O=C1OC(CO)CN1c1ccc(OCC2CC2)cc1` (centres unmarked) [770 388], the values for the ED50 in test [1], in test [2] and in test [3] were 9 mg/kg, 4.5 mg/kg and 12.5 mg/kg, respectively.
`O=C1OC(CO)CN1c1ccc(OCc2cc(Cl)cc(Cl)c2)cc1` (centres unmarked) [770 416]: the ED50 in test [1] is 6.2 mg/kg; in test [2], 3 mg/kg; in test [3], 10 mg/kg.
`CCCC(=O)c1ccc(N2CC(CO)OC2=O)cc1` (centres unmarked) [770 423]: the ED50 in test [1] was 35 mg/kg; in test [2], 5 mg/kg; in test [3] it was 25 mg/kg.
Consider `O=C1OC(CO)CN1c1ccc(OCC2=CCCC2)cc1` (centres unmarked) [770 466], for which the ED50 in test [1] is 9.6 mg/kg; in test [2], 9 mg/kg; in test [3] it was 6.2 mg/kg.
For `O=C1OC(CO)CN1c1ccc(OCC2CCCC2)cc1` (centres unmarked) [770 467], the ED50 in test [1] came out at 2.8 mg/kg; in test [2], 3 mg/kg; in test [3], 1.2 mg/kg.
`CC(=O)CSc1ccc(N2CC(CO)OC2=O)cc1` (centres unmarked) [770 501, 3-(p-acetylmethylthiophenyl) 5-hydroxymethyl 2-oxazolidinone]: the values for the ED50 in test [1] and in test [3] were 22 mg/kg and 25 mg/kg, respectively.
Consider `CC(=O)Nc1ccc(COc2ccc(N3CC(CO)OC3=O)cc2)cc1` (centres unmarked) [770 569], for which the ED50 in test [1] was determined as 5 mg/kg; in test [2], 6 mg/kg; in test [3], 2.5 mg/kg.
With `O=C1OC(CO)CN1c1ccc(OCc2ccc(F)c(Cl)c2)cc1` (centres unmarked) [770 572], the ED50 in test [1] worked out at 6.3 mg/kg; in test [2] it was 8.5 mg/kg; in test [3], 3.12 mg/kg.
In the case of `O=C1OC(CO)CN1c1ccc(OCc2ccc(Cl)c([N+](=O)[O-])c2)cc1` (centres unmarked) [770 672], the ED50 is 25 mg/kg in test [1] and 19 mg/kg in test [3].
Take `O=C1OC(CO)CN1c1ccc(COc2ccccc2)cc1` (centres unmarked) [770 696]: the results for the ED50 in test [1] and in test [3] were 15 mg/kg and 20 mg/kg, respectively.
For `O=C1OC(CO)CN1c1ccc(OCC2CCC2)cc1` (centres unmarked) [770 788] the same measures were 6.25 mg/kg and 12.5 mg/kg.
`N#Cc1cc(COc2ccc(N3CC(CO)OC3=O)cc2)ccc1F` (centres unmarked) [770 789]: the ED50 was 3 mg/kg in test [1] and 2 mg/kg in test [3].
For `O=C1OC(CO)CN1c1ccc(OCc2ccc([N+](=O)[O-])c(Cl)c2)cc1` (centres unmarked) [770 790] the same measures were 50 mg/kg and 25 mg/kg.
For `O=C1OC(CO)CN1c1ccc(OCc2cnccn2)cc1` (centres unmarked) [770 845], the ED50 in test [1] stood at 6.25 mg/kg; in test [3], 12.5 mg/kg.
For `O=C1OC(CO)CN1c1ccc(OCC2CCCCO2)cc1` (centres unmarked) [770 900], in that order: 50 mg/kg and 25 mg/kg.
For the compound `O=C1OC(CO)CN1c1ccc(OCCC2CCCCC2)cc1` (centres unmarked) [770 949], the ED50 in test [1] amounted to 10 mg/kg; in test [3], 16 mg/kg.
On to `O=C1OC(CO)CN1c1ccc(OCC2OCCO2)cc1` (centres unmarked) [770 962], for which the ED50 stood at 26 mg/kg in test [1] and 50 mg/kg in test [3].
For `O=C1OC(CO)CN1c1ccc(OCc2ccoc2)cc1` (centres unmarked) [770 979] the same measures were 14 mg/kg and 35 mg/kg.
As for `O=C1OC(CO)CN1c1ccc(OCC2=CCC=CC2)cc1` (centres unmarked) [770 984], the ED50 in test [1] turned out to be 10 mg/kg; in test [3], 25 mg/kg.
For `O=C1OC(CO)CN1c1ccc(OCc2ccsc2)cc1` (centres unmarked) [771 067] the same measures were 7.5 mg/kg and 12.5 mg/kg.
Turning to `N#Cc1cc(COc2ccc(N3CC(CO)OC3=O)cc2)cc([N+](=O)[O-])c1` (centres unmarked) [771 125], the ED50 was determined as 3.12 mg/kg in test [1] and 1.56 mg/kg in test [3].
For `O=C1OC(CO)CN1c1ccc(CCc2cccc(Cl)c2)cc1` (centres unmarked) [771 181] the same measures were 6.25 mg/kg and 6.25 mg/kg.
On to `CCC(CC)COc1ccc(N2CC(CO)OC2=O)cc1` (centres unmarked) [771 197], for which the figures for the ED50 in test [1] and in test [3] were 25 mg/kg and 16 mg/kg, respectively.
Turning to `O=C1OC(CO)CN1c1ccc(OCc2cc(Cl)cc([N+](=O)[O-])c2)cc1` (centres unmarked) [771 199], the figures for the ED50 in test [1] and in test [3] were 1.1 mg/kg and 0.8 mg/kg, respectively.
With `Nc1cccc(COc2ccc(N3CC(CO)OC3=O)cc2)c1` (centres unmarked) [771 240], the ED50 in test [1] was determined as 35 mg/kg; in test [3], 50 mg/kg.
`CC(C)(C)CCOc1ccc(N2CC(CO)OC2=O)cc1` (centres unmarked) [771 246]: the ED50 in test [1] was 17 mg/kg; in test [3], 23 mg/kg.
Turning to `CC(C)(C)COc1ccc(N2CC(CO)OC2=O)cc1` (centres unmarked) [771 249], the ED50 in test [1] was 22.5 mg/kg; in test [3] it was 50 mg/kg.
Regarding `O=C1OC(CO)CN1c1ccc(COc2cccc([N+](=O)[O-])c2)cc1` (centres unmarked) [771 263, 3-para (metanitrophenoxymethyl) phenyl 5-hydroxymethyl 2-oxazolidinone], the values for the ED50 in test [1] and in test [3] were 4 mg/kg and 3.1 mg/kg, respectively.
As for `O=C1OC(CO)CN1c1ccc(OCc2cccc(I)c2)cc1` (centres unmarked) [771 321], the ED50 amounted to 25 mg/kg in test [1] and 20 mg/kg in test [3].
For `O=C1OC(CO)CN1c1ccc(OCC2CCCCCC2)cc1` (centres unmarked) [780 030], in that order: 3 mg/kg and 5.3 mg/kg.
For `O=C1OC(CO)CN1c1ccc(OCC2CCCOC2)cc1` (centres unmarked) [780 034] the same measures were 4.4 mg/kg and 6.2 mg/kg.
For `CC1(COc2ccc(N3CC(CO)OC3=O)cc2)CCCC1` (centres unmarked) [780 076], the ED50 was determined as 2.3 mg/kg in test [1] and 7 mg/kg in test [3].
For `O=C1OC(CO)CN1c1ccc(OCC2SCCCS2)cc1` (centres unmarked) [780 077], in that order: 25 mg/kg and 44 mg/kg.
In the case of `O=C1OC(CO)CN1c1ccc(OCC2SCCS2)cc1` (centres unmarked) [780 080, 3-para[(1,3-dithiolan-2-yl)-methoxy]phenyl 5-hydroxymethyl 2-oxazolidinone], the ED50 in test [1] and in test [3] was 50 mg/kg in each case.
Turning to `O=C1OC(CO)CN1c1ccc(OCC2OCCS2)cc1` (centres unmarked) [780 112], the ED50 in test [1] was determined as 5 mg/kg; in test [3], 5.2 mg/kg.
For the compound `COC(=O)Nc1ccc(COc2ccc(N3CC(CO)OC3=O)cc2)cc1` (centres unmarked) [780 182], the ED50 is 40 mg/kg in test [1] and 25 mg/kg in test [3].
With `CCC(=O)Nc1ccc(COc2ccc(N3CC(CO)OC3=O)cc2)cc1` (centres unmarked) [780 443], the ED50 in test [1] worked out at 3.7 mg/kg; in test [3], 12.5 mg/kg.
